Legend:
Aurora kinase A = target: T1, Aurora kinase A (Homo sapiens, UniProt O14965); assay: Inhibition of Aurora A (unknown origin) using STK S2 as substrate after 40 mins by HTRF assay
T1 sequence (O14965 whole entry): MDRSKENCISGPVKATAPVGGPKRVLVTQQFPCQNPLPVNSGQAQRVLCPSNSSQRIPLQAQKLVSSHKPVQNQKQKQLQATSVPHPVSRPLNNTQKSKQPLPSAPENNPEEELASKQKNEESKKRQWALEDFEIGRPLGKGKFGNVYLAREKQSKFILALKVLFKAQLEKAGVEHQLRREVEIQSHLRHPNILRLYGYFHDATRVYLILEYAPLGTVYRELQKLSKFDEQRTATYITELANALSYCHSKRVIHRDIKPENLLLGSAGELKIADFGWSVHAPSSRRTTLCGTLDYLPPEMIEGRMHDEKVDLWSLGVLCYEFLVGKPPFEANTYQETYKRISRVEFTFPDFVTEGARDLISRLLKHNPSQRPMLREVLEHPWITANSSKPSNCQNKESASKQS

Aurora kinase B = Aurora kinase B (Homo sapiens, UniProt Q96GD4); assay: Inhibition of Aurora B (unknown origin) using STK S2 as substrate after 30 mins by HTRF assay
Aurora kinase B, sequence (Q96GD4 whole entry): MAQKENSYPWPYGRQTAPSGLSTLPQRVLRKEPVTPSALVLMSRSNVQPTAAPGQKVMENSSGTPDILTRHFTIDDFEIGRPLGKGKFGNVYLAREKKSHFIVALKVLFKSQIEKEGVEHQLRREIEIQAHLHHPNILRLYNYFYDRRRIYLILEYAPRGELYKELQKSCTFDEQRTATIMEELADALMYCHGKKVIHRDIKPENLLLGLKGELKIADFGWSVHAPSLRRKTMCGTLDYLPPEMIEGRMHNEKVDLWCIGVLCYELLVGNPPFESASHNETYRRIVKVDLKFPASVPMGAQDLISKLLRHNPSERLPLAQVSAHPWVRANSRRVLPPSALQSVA

[1] = target: Vascular endothelial growth factor receptor 2 (Homo sapiens, UniProt P35968); assay: biochemical; format: cell-based, Sf21
Vascular endothelial growth factor receptor 2, sequence (P35968 whole entry): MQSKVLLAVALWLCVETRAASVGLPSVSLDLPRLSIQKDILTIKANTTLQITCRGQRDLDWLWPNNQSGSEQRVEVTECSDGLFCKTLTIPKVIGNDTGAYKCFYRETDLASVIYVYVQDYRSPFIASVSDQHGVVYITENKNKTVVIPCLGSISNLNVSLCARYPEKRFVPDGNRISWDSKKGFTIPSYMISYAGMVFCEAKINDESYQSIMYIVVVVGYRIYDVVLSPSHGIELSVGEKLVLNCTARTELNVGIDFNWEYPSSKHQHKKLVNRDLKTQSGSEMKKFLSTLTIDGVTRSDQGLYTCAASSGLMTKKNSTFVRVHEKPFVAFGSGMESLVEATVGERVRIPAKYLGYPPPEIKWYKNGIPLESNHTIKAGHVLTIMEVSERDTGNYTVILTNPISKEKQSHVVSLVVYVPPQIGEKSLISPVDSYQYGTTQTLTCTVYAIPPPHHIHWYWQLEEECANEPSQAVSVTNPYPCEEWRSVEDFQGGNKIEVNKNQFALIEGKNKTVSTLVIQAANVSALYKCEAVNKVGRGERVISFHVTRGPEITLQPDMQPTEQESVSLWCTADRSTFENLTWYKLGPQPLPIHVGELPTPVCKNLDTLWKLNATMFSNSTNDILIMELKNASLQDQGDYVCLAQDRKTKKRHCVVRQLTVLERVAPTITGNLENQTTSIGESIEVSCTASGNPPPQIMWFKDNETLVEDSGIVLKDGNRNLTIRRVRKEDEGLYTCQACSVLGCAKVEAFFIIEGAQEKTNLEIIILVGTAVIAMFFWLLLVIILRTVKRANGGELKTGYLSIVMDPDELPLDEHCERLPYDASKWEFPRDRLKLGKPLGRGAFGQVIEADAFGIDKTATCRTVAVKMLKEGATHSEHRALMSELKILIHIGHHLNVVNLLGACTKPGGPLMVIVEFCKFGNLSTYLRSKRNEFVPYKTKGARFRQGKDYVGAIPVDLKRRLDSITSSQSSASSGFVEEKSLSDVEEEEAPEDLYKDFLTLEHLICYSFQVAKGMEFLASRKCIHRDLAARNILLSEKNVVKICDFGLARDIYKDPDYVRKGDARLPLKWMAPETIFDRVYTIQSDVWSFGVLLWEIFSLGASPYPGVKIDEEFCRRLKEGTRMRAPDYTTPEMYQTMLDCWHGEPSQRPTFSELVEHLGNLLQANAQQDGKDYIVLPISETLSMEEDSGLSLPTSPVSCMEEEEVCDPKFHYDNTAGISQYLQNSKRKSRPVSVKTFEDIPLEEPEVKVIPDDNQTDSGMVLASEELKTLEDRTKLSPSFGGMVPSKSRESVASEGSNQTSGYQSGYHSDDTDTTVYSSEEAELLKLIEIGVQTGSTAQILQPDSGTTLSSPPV
Description: Inhibition of recombinant human N-terminal His6-tagged KDR (790 to end residues) expressed in baculovirus infected Sf21 insect cells after 60 mins by ELISA

SNU-5 = assay: Antitumor activity against human SNU5 cells xenografted in nude mouse assessed as delay in tumor tumor growth at 30 mg/kg, po qd for 21 days relative to control; format: functional
Mus musculus [2] = assay: Toxicity in nude mouse xenografted with human SNU5 cells assessed as mortality at 30 mg/kg, po qd for 21 days; format: organism-based; settings: in vivo, 504 h
Mus musculus [3] = assay: Toxicity in nude mouse xenografted with human SNU5 cells assessed as body weight at 30 mg/kg, po qd for 21 days (reference value: 19.6 g); format: organism-based; settings: in vivo, 504 h

Structure (SMILES)	IC50 (Aurora kinase A)	IC50 (Aurora kinase B)	IC50 [1]	T/C (SNU-5)	Activity (Mus musculus [2])	Activity (Mus musculus [3])
CSc1ncc2c(n1)Nc1n[nH]c(C)c1N=C2c1ccccc1C(F)(F)F	128 nM	307 nM	205 nM	–	–	–
COc1cc2nccc(Oc3ccc(NC(=O)C4(C(=O)Nc5ccc(F)cc5)CC4)cc3)c2cc1OC [CABOZANTINIB]	–	–	–	8.41%	Non-Toxic	19.9 g
CSc1ncc2c(n1)Nc1n[nH]c(C)c1N=C2c1ccccc1C	75 nM	610 nM	110 nM	–	–	–
CSc1ncc2c(n1)Nc1n[nH]c(C)c1N=C2c1ccccc1Cl	94 nM	278 nM	83.7 nM	–	–	–

Second part, led by results:

IC50 (Aurora kinase A)	IC50 (Aurora kinase B)	IC50 [1]	Structure (SMILES)	T/C (SNU-5)	Activity (Mus musculus [2])	Activity (Mus musculus [3])
423 nM	854 nM	209 nM	CSc1ncc2c(n1)Nc1n[nH]c(C)c1N=C2c1ccc(C(F)(F)F)cc1	–	–	–
70.6 nM	99.8 nM	157 nM	CSc1ncc2c(n1)Nc1n[nH]c(C)c1N=C2c1ccc(C)cc1	–	–	–
63.1 nM	54.1 nM	30.3 nM	Cc1ccc(C2=Nc3c(n[nH]c3C)Nc3nc(NC(C)C)ncc32)cc1	–	–	–
108 nM	86 nM	24.7 nM	Cc1ccc(C2=Nc3c(n[nH]c3C)Nc3nc(N4CCN(C)CC4)ncc32)cc1	–	–	–
268 nM	322 nM	8.3 nM	CCN(CC)c1ncc2c(n1)Nc1n[nH]c(C)c1N=C2c1ccc(C)cc1	–	–	–
77.6 nM	50.3 nM	30 nM	Cc1ccc(C2=Nc3c(n[nH]c3C)Nc3nc(N4CCCCC4)ncc32)cc1	–	–	–
397 nM	352 nM	199 nM	CNc1ncc2c(n1)Nc1n[nH]c(C)c1N=C2c1ccc(C)cc1	–	–	–

Source: ChEMBL document CHEMBL4265936, “Pyrazolo[4,3-b]pyrimido[4,5-e][1,4]diazepine derivatives as new multi-targeted inhibitors of Aurora A/B and KDR” (Eur J Med Chem, 2018)
